Measured values published in ChEMBL document CHEMBL1201862, “PubChem BioAssay data set” (2004).
Structures can show the parent of a compound that is named as a salt.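 1) Cells in 96-well plates. 2) Compound, 48 h, 5 concentrations. 3) Linear interpolation between surrounding doses. 4) Unreached endpoint = highest concentration. At the GI50, growth is halved.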 The source made the active and inactive calls. Cut-off read from the data, not from the text of the source: active = GI50 up to about 1.1 µM and inactive = higher.

Legend:
Experiment in all cases: inhibition of tumour cell growth, NCI panel, 48 h
HCC 2998 = test system: HCC 2998
CAKI-1 = test system: CAKI-1
Malme-3M = test system: Malme-3M
PC-3 = test system: PC-3
BT-549 = test system: BT-549
HT-29 = test system: HT-29
HL-60 = test system: HL-60
DU-145 = test system: DU-145
786-0 = test system: 786-0
SK-MEL-2 = test system: SK-MEL-2
Hs-578T = test system: Hs-578T
UACC-62 = test system: UACC-62
EKVX = test system: EKVX
MDA-MB-435 = test system: MDA-MB-435
M14 = test system: M14
UACC-257 = test system: UACC-257
RXF 393 = test system: RXF 393
NCI-H226 = test system: NCI-H226
LOX IMVI = test system: LOX IMVI
OVCAR-8 = test system: OVCAR-8

Measured: GI50

CN(CCCCN1CCCC1)CCCN(C)C(=O)Cc1ccc(Cl)c(Cl)c1
inactive: HCC 2998 3.62 µM | CAKI-1 21.1 µM | Malme-3M 18.8 µM | PC-3 19.1 µM | BT-549 16 µM | HT-29 4.45 µM | HL-60 15.3 µM | DU-145 37.1 µM | 786-0 12.9 µM | SK-MEL-2 7.94 µM | Hs-578T 20.6 µM | UACC-62 4.33 µM | EKVX 19.5 µM | MDA-MB-435 2.56 µM | M14 17 µM | UACC-257 3.29 µM | RXF 393 12.7 µM | NCI-H226 26.9 µM | LOX IMVI 11.9 µM | OVCAR-8 24.4 µM

Oc1ccc(SCc2cc(O)c(O)c(O)c2)cc1
inactive: HCC 2998 > 10 µM | CAKI-1 39.6 µM | Malme-3M 61.5 µM | PC-3 40.3 µM | BT-549 25.6 µM | HT-29 23.5 µM | HL-60 34.4 µM | DU-145 56.5 µM | 786-0 37 µM | SK-MEL-2 26.1 µM | Hs-578T 77.8 µM | UACC-62 16.9 µM | EKVX > 100 µM | MDA-MB-435 22.4 µM | M14 17.9 µM | UACC-257 > 100 µM | RXF 393 89.3 µM | NCI-H226 23.7 µM | LOX IMVI 35.9 µM | OVCAR-8 21.6 µM

CC[C@@H]1C(=O)OC[C@@H]1Cc1cncn1C [PILOCARPINE HYDROCHLORIDE]
inactive: HCC 2998 > 100 µM | CAKI-1 > 100 µM | Malme-3M > 100 µM | PC-3 > 100 µM | BT-549 > 100 µM | HT-29 > 100 µM | HL-60 > 100 µM | DU-145 > 100 µM | 786-0 > 100 µM | SK-MEL-2 > 100 µM | Hs-578T > 100 µM | UACC-62 > 100 µM | EKVX > 100 µM | MDA-MB-435 > 100 µM | M14 > 100 µM | UACC-257 > 100 µM | RXF 393 > 100 µM | NCI-H226 > 100 µM | LOX IMVI > 100 µM | OVCAR-8 > 100 µM
